Where a chain is given by its changes, count along the chain named.
Tests used:
WT hTrxR [1] = biological target: T1, WT hTrxR (Homo sapiens, UniProt Q16881); test: Test for reduction of DTNB by TrxR, wild type; type: biochemical; details: 3 mM DTNB; 10 min pre-incubation with 200 μM NADPH; enzyme 4.8 nM
T1 sequence (Q16881 151-649 limits assumed): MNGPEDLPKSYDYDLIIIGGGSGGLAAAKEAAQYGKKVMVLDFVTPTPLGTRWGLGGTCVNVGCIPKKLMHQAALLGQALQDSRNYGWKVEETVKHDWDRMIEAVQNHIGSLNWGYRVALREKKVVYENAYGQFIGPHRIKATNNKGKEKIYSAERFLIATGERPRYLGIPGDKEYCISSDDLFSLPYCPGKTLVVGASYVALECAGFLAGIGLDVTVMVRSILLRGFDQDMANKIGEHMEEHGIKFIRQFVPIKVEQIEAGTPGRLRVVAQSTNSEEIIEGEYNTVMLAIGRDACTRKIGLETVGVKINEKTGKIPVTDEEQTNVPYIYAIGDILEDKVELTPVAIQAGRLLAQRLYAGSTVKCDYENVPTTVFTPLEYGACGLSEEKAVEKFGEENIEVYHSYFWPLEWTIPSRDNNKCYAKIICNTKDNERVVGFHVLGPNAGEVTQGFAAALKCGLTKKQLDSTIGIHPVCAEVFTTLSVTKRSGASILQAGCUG
From the text: (§1) The phosphole derivatives containing gold and platinum have been identified as powerful inhibitors of human GR and TrxR (see Table 1). With either the substrate TrxC72S, or DTNB, very low IC50 values at nanomolar level—quasi-stoichiometric reaction—were obtained with wild-type human TrxR. By contrast, the IC50 values with the Sec→Cys mutant were at least 1000 times higher, proving that the selenocysteine residue is the inhibition target of human TrxR. […] A reduction of these enzymes is necessary to complete the inhibition, which proves that the active site comprising the Cys/Cys residues in the GR or Cys/Sec in the TrxR is the inactivation site. The pre-reduction of these enzymes accelerates the inhibition. The reaction between the inhibitor and these enzymes is very rapid and not precisely measurable with standard enzymology techniques. […] This competition would probably not contribute to the irreversible enzymatic inactivation.

WT hTrxR [2] = biological target: T1, WT hTrxR; test: Test for reduction of Trx (hTrxC72S) by TrxR, wild type; type: biochemical; details: 20 μM hTrxC72S; 10 min pre-incubation with 100 μM NADPH; enzyme 24 nM
From the text: as §1

hTrxRSec→Cys [3] = biological target: T2, hTrxRSec→Cys (Homo sapiens, UniProt Q16881); test: Test for reduction of DTNB by TrxR, mutant hTrxR-Mut; type: biochemical; details: 3 mM DTNB; 10 min pre-incubation with 200 μM NADPH; enzyme 90.6 nM
T2 sequence (Q16881 with tags, fused parts or gaps isoform Q16881-5 limits assumed): T1 sequence (Q16881 151-649 limits assumed) with U498C
From the text: as §1

hTrxRSec→Cys [4] = biological target: T2, hTrxRSec→Cys; test: Test for reduction of Trx (hTrxC72S) by TrxR, mutant hTrxR-Mut; type: biochemical; details: 20 μM hTrxC72S; 10 min pre-incubation with 100 μM NADPH; enzyme 1.8 μM
From the text: as §1

human GR [5] = biological target: T3, human GR (Homo sapiens, UniProt P00390); test: Test for reduction of GSSG by GR; type: biochemical; details: 100 μM GSSG; 10 min pre-incubation with 100 μM NADPH
T3 sequence (P00390 45-522 limits assumed): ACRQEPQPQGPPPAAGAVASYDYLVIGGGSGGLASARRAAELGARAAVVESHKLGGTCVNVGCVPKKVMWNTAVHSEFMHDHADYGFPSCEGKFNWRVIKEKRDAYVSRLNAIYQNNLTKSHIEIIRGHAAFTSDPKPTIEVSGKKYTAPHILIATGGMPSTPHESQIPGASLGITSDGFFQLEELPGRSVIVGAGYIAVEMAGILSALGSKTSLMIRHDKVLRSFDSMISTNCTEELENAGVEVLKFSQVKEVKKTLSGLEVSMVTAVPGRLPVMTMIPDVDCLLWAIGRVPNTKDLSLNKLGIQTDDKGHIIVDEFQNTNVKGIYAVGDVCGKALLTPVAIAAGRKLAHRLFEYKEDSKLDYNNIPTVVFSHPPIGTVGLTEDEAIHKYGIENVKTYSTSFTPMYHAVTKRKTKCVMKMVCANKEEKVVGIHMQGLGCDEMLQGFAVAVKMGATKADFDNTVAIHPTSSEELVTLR
From the text: as §1

human GR [6] = biological target: T3, human GR; test: Binding of (1) to human GR: titration and initial-speed kinetics
Procedure: The stoichiometry of binding of (1) to human GR was determined by titration. Based on these experiments, (1) binds very tightly to the binding site of the GSSG of each human GR sub-unit. […] Although numerous hydrophobic inhibitors of the human GR and of the GR of Plasmodium falciparum are bound in the cavity between the two sub-units of the dimer with a stoichiometry of 0.5 per sub-unit, this is not the case for the inhibitor (1). The stoichiometry of 1.25 equivalents of (1) per FAD or per sub-unit of human GR can be explained by the presence of a second molecule of (1) bound less tightly to another position in the human GR, confirming the 3D structure of the complex GR-(1). […] The inactivation mechanism of human GR therefore involves an S—Au(I)—S coordination and the loss of the phosphole ligand; • the second site for the metallo-phosphole (1) is the Cys284 exposed to the solvent, at 23 Å of the active site and located in a hydrophobic cavity. In this case, the sulphur atom of the Cys284 remains bound to the Au-phosphole entity. […]

[7] = Tolerability in C6 glioma-bearing rats; type: in vivo, rat
Procedure: After confirmation of the tumour growth by MRI on day 9, the rats carrying tumours were treated by intravenous injection with the compound (1) at a concentration of 25 mg/kg (n=4). The tumour growth was compared to that of the non-treated control animals (n=4). The treatment commenced on day 9 and continued on days 11 and 13. On day 15 after the implantation of the tumour cells, all the rats were sacrificed by decapitation. Under these conditions, a 44% reduction of the tumour growth was observed between days 9 and 15 at a dose of compound (1) of 25 mg/kg of body weight compared with that of the control group (FIG. 1).

DNA = test: Thermal DNA denaturation test; type: binding; details: tested between 0 and 20 μM
Procedure: In addition to its major activity on human disulphide reductases, glutathione reductase and thioredoxin reductase, the binding of complex (1) to DNA was measured in thermal DNA denaturation tests.

[8] = system: NCH89 human glioblastoma cell line; test: BrdU in vitro proliferation test, NCH89; type: cell-based; details: BrdU incorporation
Procedure: (§2) Briefly, the tumour cells are cultured and duplicated in 96-well plates in RPMI 1640 medium containing 10% foetal calf serum and antibiotics (cell density: 7×10^3 cells). […] After 48 hours, the reagent 5-bromo-2′-deoxyuridine (BrdU) was added at the final concentration of 10 μM for an incubation period of 19 hours. […] Compound (7) (Au-triphenylphosphine chloride complex, (PPh3)AuCl) and nitrosourea 1,3-bis(2-chloroethyl)-1-nitrosourea (BCNU, carmustine) are positive controls already reported in the literature.

[9] = system: NCH37 human glioblastoma cell line; test: BrdU in vitro proliferation test, NCH37; type: cell-based; details: BrdU incorporation
Procedure: as §2

[10] = system: NCH82 human glioblastoma cell line; test: BrdU in vitro proliferation test, NCH82; type: cell-based; details: BrdU incorporation
Procedure: as §2

Question: With `[Cl][Au][PH]1(c2ccccc2)C(c2ccccn2)=C2CCCCC2=C1c1ccccn1` [Compound 1] as the compound, how does the IC50 (WT hTrxR [1]) read?
Answer: 0.8 nM

Question: And the IC50 (WT hTrxR [2])?
Answer: 7 nM

Question: What about the IC50 (hTrxRSec→Cys [3]) of the same compound?
Answer: 2500 nM

Question: What about the IC50 (hTrxRSec→Cys [4]) of the same compound?
Answer: 800 nM

Question: And the IC50 (human GR [5])?
Answer: 1 nM

Question: And the Kd (human GR [6]; kinetics at initial speed with 0.5-2.0 μM GSSG, read-out: disassociation constant Kd=Ki)?
Answer: 460 nM

Question: And the stoichiometry of binding (human GR [6]; titration, differences in extinction coefficient at selected wavelengths)?
Answer: 1.25 equivalents of (1) per FAD or per sub-unit of human GR

Question: And the “tolerability of the therapy” value ([7]; 25 mg/kg)?
Answer: well tolerated

Question: And the death from treatment ([7]; 25 mg/kg i.v., C6 glioma rats)?
Answer: no animal died

Question: What about the “total body weight, treated vs control” value ([7]; 25 mg/kg i.v., C6 glioma rats) of the same compound?
Answer: no significant difference

Question: What about the “binding to DNA: concentration from which active” value (DNA) of the same compound?
Answer: 1 µM

Question: With `[Cl][Au][PH]1(c2ccccc2)C(c2ccccn2)=C2CCCCC2=C1c1cccs1` [Compound 2] as the compound, how does the IC50 (WT hTrxR [1]) read?
Answer: 1 nM

Question: And the IC50 (WT hTrxR [2])?
Answer: 7 nM

Question: And the IC50 (hTrxRSec→Cys [3])?
Answer: 2500 nM

Question: What about the IC50 (hTrxRSec→Cys [4]) of the same compound?
Answer: 1400 nM

Question: And the IC50 (human GR [5])?
Answer: 2 nM

Question: For `[Cl][Pt-2]1([Cl])[n+]2ccccc2C2=C3CCCCC3=C(c3cccs3)[P+]21c1ccccc1` (centres unmarked) [Compound 4], which IC50 (WT hTrxR [1]) is on record?
Answer: 1 nM

Question: And the IC50 (WT hTrxR [2])?
Answer: 8 nM

Question: What about the IC50 (hTrxRSec→Cys [3]) of the same compound?
Answer: 24000 nM

Question: What about the IC50 (hTrxRSec→Cys [4]) of the same compound?
Answer: 2300 nM

Question: What about the IC50 (human GR [5]) of the same compound?
Answer: 400 nM

Question: With `c1ccc(-p2c(-c3ccccn3)c3c(c2-c2ccccn2)CCCC3)cc1` [Compound 5] as the compound, how does the IC50 [8] read?
Answer: 6.7 ± 0.3 µM

Question: Which IC50 [8] does the source give for `c1ccc(-p2c(-c3ccccn3)c3c(c2-c2cccs2)CCCC3)cc1` (centres unmarked) [Compound 6] here?
Answer: 8.5 ± 0.5 µM

Question: With `O=NN(CCCl)C(=O)NCCCl` [carmustine, 1,3-bis(2-chloroethyl)-1-nitrosourea] as the compound, how does the IC50 [9] read?
Answer: 300 ± 12 µM

Question: What about the IC50 [10] of the same compound?
Answer: 385 ± 25 µM

Question: And the IC50 [8]?
Answer: 615 ± 38 µM
